Source: the NIST ThermoML archive (doi:10.1016/j.jct.2016.06.023)
± gives the expanded uncertainty stated by the source.

Assay: mn = molality of the nth substance listed, in mol/kg
Conditions: 101.3 kPa, Liquid, Vibrating tube method

O=C(O)CC(=O)O [propanedioic acid] + O
mass density [kg/m3]
Conditions | 278.15 K | 283.15 K | 288.15 K | 293.15 K | 298.15 K | 303.15 K | 308.15 K
m1 = 0.01001 | 1000.48 ± 0.4 | 1000.21 ± 0.4 | 999.61 ± 0.4 | 998.7 ± 0.4 | 997.52 ± 0.4 | 996.14 ± 0.4 | 994.51 ± 0.4
m1 = 0.02001 | 1000.91 ± 0.4 | 1000.62 ± 0.4 | 1000.03 ± 0.4 | 999.1 ± 0.4 | 997.93 ± 0.4 | 996.53 ± 0.4 | 994.89 ± 0.4
m1 = 0.03 | 1001.31 ± 0.4 | 1001 ± 0.4 | 1000.4 ± 0.4 | 999.47 ± 0.4 | 998.3 ± 0.4 | 996.9 ± 0.4 | 995.23 ± 0.4
m1 = 0.03962 | 1001.73 ± 0.4 | 1001.4 ± 0.4 | 1000.79 ± 0.4 | 999.85 ± 0.4 | 998.66 ± 0.4 | 997.28 ± 0.4 | 995.6 ± 0.4
m1 = 0.04998 | 1002.16 ± 0.4 | 1001.83 ± 0.4 | 1001.21 ± 0.4 | 1000.27 ± 0.4 | 999.07 ± 0.4 | 997.66 ± 0.4 | 996 ± 0.4
m1 = 0.05936 | 1002.53 ± 0.4 | 1002.19 ± 0.4 | 1001.57 ± 0.4 | 1000.61 ± 0.4 | 999.4 ± 0.4 | 997.99 ± 0.4 | 996.33 ± 0.4
m1 = 0.06926 | 1002.93 ± 0.4 | 1002.58 ± 0.4 | 1001.95 ± 0.4 | 1000.99 ± 0.4 | 999.78 ± 0.4 | 998.37 ± 0.4 | 996.69 ± 0.4
m1 = 0.07949 | 1003.34 ± 0.4 | 1002.98 ± 0.4 | 1002.34 ± 0.4 | 1001.37 ± 0.4 | 1000.15 ± 0.4 | 998.72 ± 0.4 | 997.06 ± 0.4
m1 = 0.08906 | 1003.73 ± 0.4 | 1003.36 ± 0.4 | 1002.71 ± 0.4 | 1001.73 ± 0.4 | 1000.52 ± 0.4 | 999.08 ± 0.4 | 997.4 ± 0.4
m1 = 0.09935 | 1004.11 ± 0.4 | 1003.73 ± 0.4 | 1003.07 ± 0.4 | 1002.12 ± 0.4 | 1000.89 ± 0.4 | 999.45 ± 0.4 | 997.74 ± 0.4
m1 = 0.1984 | 1008.06 ± 0.4 | 1007.6 ± 0.4 | 1006.87 ± 0.4 | 1005.8 ± 0.4 | 1004.55 ± 0.4 | 1003.05 ± 0.4 | 1001.28 ± 0.4
m1 = 0.2977 | 1011.96 ± 0.4 | 1011.4 ± 0.4 | 1010.6 ± 0.4 | 1009.46 ± 0.4 | 1008.15 ± 0.4 | 1006.6 ± 0.4 | 1004.77 ± 0.4
m1 = 0.404 | 1016 ± 0.4 | 1015.36 ± 0.4 | 1014.47 ± 0.4 | 1013.26 ± 0.4 | 1011.88 ± 0.4 | 1010.27 ± 0.4 | 1008.39 ± 0.4
m1 = 0.5055 | 1019.85 ± 0.4 | 1019.12 ± 0.4 | 1018.15 ± 0.4 | 1016.89 ± 0.4 | 1015.45 ± 0.4 | 1013.79 ± 0.4 | 1011.84 ± 0.4
m1 = 0.6055 | 1023.51 ± 0.4 | 1022.71 ± 0.4 | 1021.67 ± 0.4 | 1020.35 ± 0.4 | 1018.85 ± 0.4 | 1017.14 ± 0.4 | 1015.15 ± 0.4
m1 = 0.6936 | 1026.73 ± 0.4 | 1025.86 ± 0.4 | 1024.77 ± 0.4 | 1023.39 ± 0.4 | 1021.85 ± 0.4 | 1020.08 ± 0.4 | 1018.07 ± 0.4
m1 = 0.7926 | 1030.29 ± 0.41 | 1029.35 ± 0.4 | 1028.19 ± 0.4 | 1026.76 ± 0.4 | 1025.16 ± 0.4 | 1023.35 ± 0.4 | 1021.29 ± 0.4
m1 = 0.891 | 1033.82 ± 0.41 | 1032.8 ± 0.41 | 1031.58 ± 0.4 | 1030.1 ± 0.4 | 1028.44 ± 0.4 | 1026.58 ± 0.4 | 1024.47 ± 0.4
m1 = 0.9895 | 1037.16 ± 0.41 | 1036.1 ± 0.41 | 1034.82 ± 0.41 | 1033.27 ± 0.41 | 1031.58 ± 0.4 | 1029.66 ± 0.4 | 1027.51 ± 0.4
